“And” between values parts separate entries of the source, which are not always exact repeats. Equal entries are not always repeated. Where two headings read alike, the source gives them in different places.

Data set [1] concerns the target T1, MTAP (Homo sapiens, UniProt Q13126).
T1 sequence (Q13126 1-283): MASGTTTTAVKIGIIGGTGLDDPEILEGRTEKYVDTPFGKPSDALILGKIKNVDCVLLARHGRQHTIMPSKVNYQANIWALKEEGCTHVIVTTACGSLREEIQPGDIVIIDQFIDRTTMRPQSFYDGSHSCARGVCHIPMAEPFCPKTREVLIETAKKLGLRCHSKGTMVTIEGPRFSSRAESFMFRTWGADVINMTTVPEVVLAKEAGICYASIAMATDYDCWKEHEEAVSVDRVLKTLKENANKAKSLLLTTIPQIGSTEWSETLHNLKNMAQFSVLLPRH
The data set is described as follows: Isothermal titration calorimetry of ligand binding to human MTAP. To be noted: for ΔG: calculated from Ki; for −TΔS: from ΔG=ΔH−TΔS.

Data set [2] concerns the target T1, MTAP. The data set is described as follows: Analytical ultracentrifugation sedimentation velocity of MTAP complexes. The settings on record: for S(20,w) (normalized): MTAP 134 μM + inhibitor 400 μM, normalized for mass of bound ligands; for S(20,w) relative change: versus apo MTAP.
The test system of data set [3] is FaDu. The settings on record: FaDu cells; cited from earlier work.
Data set [4] deals with FaDu tumors. The settings on record: mouse model; cited from earlier work.
Data set [5] addresses T1, MTAP. The settings on record: cited from earlier work; for Ki: human MTAP.
For data set [6] the following is noted: in vivo; cited from earlier work.
Data set [7] deals with human lung cancer cell lines. The settings on record: mouse xenografts; cited from earlier work.
In data set [8] the test system is Cal27. The settings on record: Cal27 cells; cited from earlier work.
The mark [9] stands for this setting: second generation inhibitors, single set of identical sites.
Where [10] appears, read: second generation inhibitors, identical sites.
The mark [11] stands for this setting: first generation inhibitors, major binding sites (first two sites).
[12] abbreviates: first generation inhibitors, major binding sites.
The mark [13] stands for this setting: first generation inhibitors, third site.

`Nc1ncnc2[nH]cnc12` [Adenine, reference compound] yielded a Kd in data set [1] (Kd, adenine, 1st site, three sequential binding sites model, derived from ITC data fitting) of 3000 ± 1000 nM. The ΔH in data set [1] (adenine, 1st site) was -0.003 ± 0.2 kcal/mol; in data set [1] (adenine, 2nd site), 2.4 ± 0.2 kcal/mol; in data set [1] (adenine, 3rd site), -2.6 ± 0.8 kcal/mol. The “n (number of sites)” value in data set [1] (adenine, 1st site, sequential model) was determined as 1; in data set [1] (adenine, 2nd site, sequential model) it was 1; in data set [1] (adenine, 3rd site, sequential model), 1. For the same molecule, the ΔG is -7.6 ± 0.2 kcal/mol in data set [1] (adenine, 1st site); -7.7 ± 0.2 kcal/mol in data set [1] (adenine, 2nd site); -5.6 ± 0.5 kcal/mol in data set [1] (adenine, 3rd site). For the same molecule, the “−TΔS” value in data set [1] (adenine, 1st site) is -7.6 ± 0.3 kcal/mol; in data set [1] (adenine, 2nd site), -10.1 ± 0.3 kcal/mol; in data set [1] (adenine, 3rd site) it was -3.0 ± 0.9 kcal/mol. The “Entropy (−TΔS) share of the binding energy” value in data set [1] (adenine, third site) was found to be 54%.

For `CSC[C@H]1CN(Cc2c[nH]c3c(N)ncnc23)C[C@@H]1O` [MT-DADMe-ImmA], in data set [2], the “S(20,w) (normalized)” value is 5.904 ± 0.016 and the “S(20,w) relative change” value came to 0.79 ± 0.05%. Besides, the apoptosis result in data set [3] is listed as “induces apoptosis”. The tumor growth result in data set [4] is given as “prevents the growth of FaDu tumors”. The Ki in data set [5] (read-out: Ki (dissociation constant by inhibition kinetics)) is 0.09 nM. Also, in data set [5] (setting [9]), the Kd was 0.09 ± 0.01 nM. Besides, in data set [6], the systemic toxicity result is listed as “low systemic toxicity”. In data set [1] (setting [10]), the ΔH is recorded as 1.5 ± 0.1 kcal/mol; the ΔG is -13.7 kcal/mol and -13.7 ± 0.1 kcal/mol; the “−TΔS” value was -15.2 kcal/mol and -15.2 ± 0.1 kcal/mol. The “n (number of sites)” value in data set [1] (setting [9]) came to 3. The “tumor growth and metastases” value in data set [7] was “inhibits the tumor growth and metastases”. Moreover, in data set [8], the apoptosis entry is “induces apoptosis”.

Consider `CSCC1NC(c2c[nH]c3c(N)ncnc23)[C@@H](O)[C@H]1O` (some centres unmarked) [MT-ImmA], for which the Kd in data set [5] (setting [11]) is 1 ± 0.1 nM. Moreover, in data set [5], the Ki was 1 nM. In data set [1] (setting [12]), the “n (number of sites)” value is on record as 2.42 ± 0.04; the ΔH was 0.2 kcal/mol and 0.24 ± 0.04 kcal/mol; the ΔG was -12.3 kcal/mol and -12.3 ± 0.1 kcal/mol; the “−TΔS” value is -12.5 kcal/mol and -12.5 ± 0.1 kcal/mol. Also, in data set [1] (setting [13]), the “n (number of sites)” value came to 0.58 ± 0.09, the ΔH is given as 2.7 ± 0.4 kcal/mol, the ΔG was -8.4 ± 0.3 kcal/mol and the “−TΔS” value was -11.1 ± 0.5 kcal/mol.

For `CCCSC[C@H]1N[C@@H](c2c[nH]c3c(N)ncnc23)[C@H](O)[C@@H]1O` [nPrT-ImmA], in data set [5] (setting [11]), the Kd was 0.214 ± 0.01 nM. In addition, in data set [1] (setting [12]), the “n (number of sites)” value amounted to 2.13 ± 0.04; the ΔH is 0.2 kcal/mol and 0.24 ± 0.03 kcal/mol; the ΔG is -13.2 kcal/mol and -13.2 ± 0.03 kcal/mol; the “−TΔS” value was -13.4 kcal/mol and -13.4 ± 0.1 kcal/mol. For the same molecule, in data set [1] (setting [13]), the “n (number of sites)” value came out at 0.9 ± 0.1, the ΔH is reported as 1.1 ± 0.2 kcal/mol, the ΔG is -8.2 ± 0.4 kcal/mol and the “−TΔS” value is -9.3 ± 0.4 kcal/mol.

In the case of `Nc1ncnc2c(CN3CC(CSc4ccc(Cl)cc4)[C@H](O)C3)c[nH]c12` (some centres unmarked) [p-Cl-PhT-DADMe-ImmA], in data set [2], the “S(20,w) (normalized)” value stood at 6.012 ± 0.067; the “S(20,w) relative change” value is 2.63% and 2.63 ± 0.12%. Besides, in data set [5] (setting [9]), the Kd is 0.01 ± 0.005 nM. For the same molecule, in data set [1] (setting [10]), the ΔH is 2.6 ± 0.1 kcal/mol; the ΔG is -15.0 kcal/mol and -15.0 ± 0.3 kcal/mol; the “−TΔS” value is -17.6 kcal/mol and -17.6 ± 0.3 kcal/mol. The “n (number of sites)” value in data set [1] (setting [9]) is on record as 3.

Source of the values: article PMC3222737 (Biochemistry, 2011).
